From patent US20160168155A1, “POLYMORPH OF SYK INHIBITORS” (GILEAD CONNECTICUT, INC., priority 2013, published 2016)

Columns and labels:
[1] = Hygroscopicity by dynamic vapor sorption (Q5000SA), Example 6A; format: physicochemical; settings: for hygroscopicity: 0 to 90% RH
Method: Hygroscopicity of polymorph Form 3 and polymorph Form 7 at 25° C. was determined by dynamic vapor sorption (DVS) using an automated vapor sorption balance (Q5000SA; TA instruments, New Castle, Del.). Hygroscopicity was studied as a function of relative humidity (RH) over the range of 0 to 90%. Approximately 10 mg of solid sample was placed directly onto the 13 mm quartz DVS sample cup and equilibrated at 0% relative humidity (RH) until a constant weight was achieved. After equilibration, the RH was increased in increments of 10% to reach 90%, and the water sorption was monitored. For desorption, the relative humidity was deceased in a similar manner to accomplish a full sorption/desorption cycle.
For all experiments, the instrument was operated in dm/dt mode (mass variation over time) to determine when equilibrium was reached. A fixed dm/dt value of 0.0010% min^−1 was selected for all RH segments. A maximum stage of 360 minutes and a minimum stage of 60 minutes were selected for these experiments.

[2] = Moisture sorption isotherms (Hiden IGASorp / SMS DVS Intrinsic), Example 6B; format: physicochemical; settings: for water uptake up to 90% RH / hygroscopicity: 25° C.; for hygroscopicity: sorption isotherm, 0-90% RH
Method: Sorption isotherms were obtained using a Hiden IGASorp moisture sorption analyser, controlled by CFRSorp software. The sample temperature was maintained at 25° C. by a Huber re-circulating water bath. The humidity was controlled by mixing streams of dry and wet nitrogen, with a total flow rate of 250 ml/min. The relative humidity (RH) was measured by a calibrated Vaisala RH probe (dynamic range of 0-95% RH), located near the sample. The weight change, (mass relaxation) of the sample as a function of % RH was constantly monitored by the microbalance (accuracy ±0.001 mg).
10-20 mg of sample was placed in a tared mesh stainless steel basket under ambient conditions. The sample was loaded and unloaded at 40% RH and 25° C. (typical room conditions).
A moisture sorption isotherm was performed as outlined in Table 1 below (2 scans giving 1 complete cycle). The standard isotherm was performed at 25° C. at 10% RH intervals over a 0-90% RH range.
The software uses a least squares minimization procedure together with a model of the mass relaxation, to predict an asymptotic value. The measured mass relaxation value must be within 5% of that predicted by the software, before the next % RH value is selected. The minimum equilibration time was set to 1 hour and the maximum to 4 hours. Data analysis was carried out using IGASorp Systems Software v 6.50.55. The sample was recovered after completion of the isotherm and re-analyzed by XRPD.
In other cases, sorption isotherms were also obtained using a SMS DVS Intrinsic moisture sorption analyser, controlled by DVS Intrinsic Control software v1.0.1.2 (or v 1.0.1.3). The sample temperature was maintained at 25° C. by the instrument controls. The humidity was controlled by mixing streams of dry and wet nitrogen, with a total flow rate of 200 ml/min. The relative humidity was measured by a calibrated Rotronic probe (dynamic range of 1.0-100% RH), located near the sample. The weight change, (mass relaxation) of the sample as a function of % RH was constantly monitored by the microbalance (accuracy ±0.005 mg).
5-20 mg of sample was placed in a tared mesh stainless steel basket under ambient conditions. The sample was loaded and unloaded at 40% RH and 25° C. (typical room conditions). A moisture sorption isotherm was performed as outlined in Table 2 below (2 scans giving 1 complete cycle). The standard isotherm was performed at 25° C. at 10% RH intervals over a 0-90% RH range. Data analysis was carried out using Microsoft Excel using DVS Analysis Suite v6.2 (or 6.1 or 6.0). The sample was recovered after completion of the isotherm and re-analyzed by XRPD.

[3] = Intrinsic dissolution rate, rotating disk apparatus; format: physicochemical
Method: Intrinsic dissolution rate experiments were conducted using a rotating disk apparatus. Disks of drug substance were prepared by directly compressing 100 mg of powder of polymorph Form 3 in a die at a pressure of 2500 psi for 2 minutes using a hydraulic press (Carver Press, Fred Carver, NJ, USA). The exposed surface area for the resulting disk was 0.5 cm^2. A regular USP dissolution apparatus maintained at 37±0.5° C. was used for the dissolution study. Each dissolution vessel contained 500 mL of aqueous dissolution medium of 0.05 N HCl or pH 6.8 20 mM phosphate buffer with 1% cetyltrimetrylammonium bromide (CTAB). The disk holder (die) was half-immersed into the dissolution medium and rotated at 100 rpm. Samples were withdrawn at specified time intervals and analyzed by HPLC.
The dissolution rate (J) of solid per unit surface area may be described by a diffusion model:
Where D is the diffusion coefficient of the solute, h is the diffusion layer thickness during dissolution at the surface of solid, Cs is the saturation solubility of the solid in the dissolution medium, and Cb is its concentration in the bulk medium. Under sink condition (Cs>>Cb) Equation 2 is reduced to: […]
where dissolution rate is directly proportional to the saturated solubility.

[4] = PK study in pentagastrin- or famotidine-pretreated dogs, oral tablets; settings: famotidine-pretreated dogs, tablet
[5] = DVS, 25° C., listed as Polymorph Form 7
[6] = DVS, 25° C., listed as Polymorph Form 3

For `c1cn2cc(-c3ccc4cn[nH]c4c3)nc(Nc3ccc(N4CCOCC4)cc3)c2n1` [polymorph Form 7], the hygroscopicity [1, 5] was “highly hygroscopic”, the “weight gain at 40% RH” value ([1]; DVS, 25° C., 40% RH) was roughly 10% and the “water adsorption / weight gain at 90% RH” value [1, 5] was roughly 22%. For the same molecule, the “water uptake up to 90% RH” value ([2]; listed as Polymorph Form 7) was roughly 21 wt. %, the “solid form below the stable RH interval” value ([2]; below 30% RH) was “becomes amorphous” and the “RH interval in which the form is stable” value ([2]; room temperature) was 30-60 % RH. The hygroscopicity ([2]; listed as Polymorph Form 7) was “highly hygroscopic”.
For `c1cn2cc(-c3ccc4cn[nH]c4c3)nc(Nc3ccc(N4CCOCC4)cc3)c2n1` [Free Base, Compound of Formula I], the Solubility in water (Solubility in water) was less than 0.00005 mg/mL, the “Intrinsic dissolution rate in pH 1.3 0.05N HCl with 0.9% NaCl” value ([3]; pH 1.3, rotating disk, 37° C., 100 rpm) was 0.00046 mg/min/cm^2 and the “Intrinsic dissolution rate in pH 6.8 20 mM phosphate with 1% CTAB” value ([3]; pH 6.8, rotating disk, 37° C., 100 rpm, listed as free base of Formula I) was “no free base was detectable”.
In the case of `c1cn2cc(-c3ccc4cn[nH]c4c3)nc(Nc3ccc(N4CCOCC4)cc3)c2n1` [polymorph Form 3], the Solubility in water (Solubility in water) is reported as greater than 100 mg/mL, the “final pH” value (Solubility in water; final pH of the water solubility sample) is reported as “(final pH < 1.5)” and the hygroscopicity ([1]; DVS, 25° C.) is reported as “not observed to be hygroscopic”. The hygroscopicity [1, 6] was “not observed to be hygroscopic at 70% RH and below”, the “water adsorption / weight gain at 90% RH” value [1, 6] was roughly 28% and the “solid form after DVS experiment (XRPD)” value ([1]; sample collected at end of DVS) was “converted to Form 7”. The “IDR higher than mono MSA” value ([3]; pH 6.8) was 400 fold, the “Intrinsic dissolution rate in pH 6.8 20 mM phosphate with 1% CTAB” value ([3]; pH 6.8, rotating disk, 37° C., 100 rpm) was 1.2 mg/min/cm^2 and the “water uptake up to 90% RH” value ([2]; listed as Form 3) was roughly 20 wt. %. The “solid form after DVS analysis (XRPD)” value ([2]; sample after DVS analysis) was “converted to Form 7”, the hygroscopicity [2] was “not hygroscopic” and the hygroscopicity ([2]; listed as Polymorph Form 3) was “not observed to be hygroscopic at 70% RH and below”. The “increase of AUC0-24 compared to the mono-MSA salt formulation” value [4] was “more than 10 fold”.
